ChEMBL document CHEMBL5291721, “A preclinical secondary pharmacology resource illuminates target-adverse drug reaction associations of marketed drugs” (Nat Commun, 2023)

Legend:
[1] = biological target: Beta-2 adrenergic receptor (Homo sapiens, UniProt P07550)
[2] = biological target: T1, Gastrin/cholecystokinin type B receptor (Homo sapiens, UniProt P32239)
T1 sequence (P32239 whole entry): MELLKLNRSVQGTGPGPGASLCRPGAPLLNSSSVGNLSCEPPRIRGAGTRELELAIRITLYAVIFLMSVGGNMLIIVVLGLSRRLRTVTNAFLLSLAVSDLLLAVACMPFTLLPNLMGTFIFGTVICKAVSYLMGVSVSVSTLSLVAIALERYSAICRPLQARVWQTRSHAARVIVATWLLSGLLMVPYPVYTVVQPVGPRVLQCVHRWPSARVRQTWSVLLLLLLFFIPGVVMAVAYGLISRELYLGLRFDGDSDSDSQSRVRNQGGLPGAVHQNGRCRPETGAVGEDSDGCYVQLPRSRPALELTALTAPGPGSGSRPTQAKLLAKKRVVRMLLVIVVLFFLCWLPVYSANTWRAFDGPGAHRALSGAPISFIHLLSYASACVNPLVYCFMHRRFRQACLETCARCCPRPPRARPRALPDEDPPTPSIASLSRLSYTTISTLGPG

[3] = biological target: Histamine H1 receptor (Homo sapiens, UniProt P35367)
[4] = biological target: T2, Muscarinic acetylcholine receptor M2 (Homo sapiens, UniProt P08172); assay type: functional, cell-based
T2 sequence (P08172 whole entry): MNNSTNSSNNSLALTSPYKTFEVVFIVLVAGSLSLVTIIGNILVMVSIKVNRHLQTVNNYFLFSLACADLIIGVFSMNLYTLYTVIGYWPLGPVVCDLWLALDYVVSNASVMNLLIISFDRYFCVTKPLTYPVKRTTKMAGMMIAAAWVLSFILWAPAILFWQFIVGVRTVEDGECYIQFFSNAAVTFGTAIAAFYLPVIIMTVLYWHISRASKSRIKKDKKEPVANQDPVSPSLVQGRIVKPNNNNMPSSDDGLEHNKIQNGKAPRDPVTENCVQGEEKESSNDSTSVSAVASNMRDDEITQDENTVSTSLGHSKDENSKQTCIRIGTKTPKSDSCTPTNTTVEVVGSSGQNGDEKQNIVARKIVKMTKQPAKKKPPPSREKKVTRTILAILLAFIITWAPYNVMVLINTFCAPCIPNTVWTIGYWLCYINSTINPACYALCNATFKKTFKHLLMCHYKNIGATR

[5] = biological target: T3, Equilibrative nucleoside transporter 1 (Homo sapiens, UniProt Q99808)
T3 sequence (Q99808 whole entry): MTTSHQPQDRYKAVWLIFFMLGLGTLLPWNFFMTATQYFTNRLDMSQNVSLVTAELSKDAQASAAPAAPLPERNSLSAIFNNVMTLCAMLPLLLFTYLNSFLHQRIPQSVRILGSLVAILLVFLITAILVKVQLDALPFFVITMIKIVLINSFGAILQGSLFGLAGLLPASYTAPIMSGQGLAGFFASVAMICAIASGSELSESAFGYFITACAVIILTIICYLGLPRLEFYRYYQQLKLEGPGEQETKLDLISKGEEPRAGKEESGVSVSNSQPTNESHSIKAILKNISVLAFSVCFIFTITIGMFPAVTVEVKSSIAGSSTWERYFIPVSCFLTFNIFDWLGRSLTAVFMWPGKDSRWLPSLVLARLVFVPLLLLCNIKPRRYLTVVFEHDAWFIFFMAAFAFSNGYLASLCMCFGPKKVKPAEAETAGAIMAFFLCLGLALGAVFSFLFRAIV

[6] = biological target: T4, Progesterone receptor (Homo sapiens, UniProt P06401); assay type: functional
T4 sequence (P06401 whole entry): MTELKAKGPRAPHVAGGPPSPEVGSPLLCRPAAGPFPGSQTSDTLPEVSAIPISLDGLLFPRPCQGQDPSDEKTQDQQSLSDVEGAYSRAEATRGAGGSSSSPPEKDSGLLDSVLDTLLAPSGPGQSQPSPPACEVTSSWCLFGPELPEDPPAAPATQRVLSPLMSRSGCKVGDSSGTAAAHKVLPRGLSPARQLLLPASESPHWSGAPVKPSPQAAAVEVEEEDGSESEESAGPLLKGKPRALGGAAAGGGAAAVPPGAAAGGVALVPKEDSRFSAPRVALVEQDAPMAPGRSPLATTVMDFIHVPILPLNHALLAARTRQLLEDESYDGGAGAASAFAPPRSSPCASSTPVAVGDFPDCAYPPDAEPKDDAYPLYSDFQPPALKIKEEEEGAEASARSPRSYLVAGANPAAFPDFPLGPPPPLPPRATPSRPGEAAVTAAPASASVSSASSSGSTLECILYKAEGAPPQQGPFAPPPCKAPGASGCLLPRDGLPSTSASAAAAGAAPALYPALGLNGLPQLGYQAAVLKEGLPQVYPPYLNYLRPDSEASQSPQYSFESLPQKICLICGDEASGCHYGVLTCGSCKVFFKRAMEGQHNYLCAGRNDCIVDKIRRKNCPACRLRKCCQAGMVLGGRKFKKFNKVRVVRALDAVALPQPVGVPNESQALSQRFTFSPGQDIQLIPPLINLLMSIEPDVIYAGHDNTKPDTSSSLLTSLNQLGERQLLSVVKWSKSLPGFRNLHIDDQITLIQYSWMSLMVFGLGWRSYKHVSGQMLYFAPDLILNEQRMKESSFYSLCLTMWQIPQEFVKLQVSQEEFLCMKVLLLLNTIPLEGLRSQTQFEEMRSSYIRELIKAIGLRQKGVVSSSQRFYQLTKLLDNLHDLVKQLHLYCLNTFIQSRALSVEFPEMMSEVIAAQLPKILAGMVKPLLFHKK

[7] = biological target: T5, 5-hydroxytryptamine receptor 2A (Homo sapiens, UniProt P28223); assay type: functional, cell-based
[8] = biological target: T5, 5-hydroxytryptamine receptor 2A; assay type: functional, cell-based; remark: listed apart in the source
Note: assay procedure not described here.

T5 sequence (P28223 whole entry): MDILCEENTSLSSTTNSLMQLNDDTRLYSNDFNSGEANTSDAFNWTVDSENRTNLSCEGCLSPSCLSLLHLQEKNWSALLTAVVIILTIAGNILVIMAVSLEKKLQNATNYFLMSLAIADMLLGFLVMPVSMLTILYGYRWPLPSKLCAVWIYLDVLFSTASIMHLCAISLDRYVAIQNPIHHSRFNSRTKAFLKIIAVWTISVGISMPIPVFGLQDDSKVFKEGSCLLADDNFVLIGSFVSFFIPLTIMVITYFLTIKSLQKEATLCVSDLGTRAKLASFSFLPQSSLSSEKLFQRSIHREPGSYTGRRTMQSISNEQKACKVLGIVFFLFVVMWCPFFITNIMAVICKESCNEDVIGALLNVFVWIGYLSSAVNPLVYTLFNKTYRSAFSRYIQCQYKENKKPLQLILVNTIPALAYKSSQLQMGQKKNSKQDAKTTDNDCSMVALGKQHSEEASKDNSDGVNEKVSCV
Sequence of Histamine H1 receptor (P35367 whole entry): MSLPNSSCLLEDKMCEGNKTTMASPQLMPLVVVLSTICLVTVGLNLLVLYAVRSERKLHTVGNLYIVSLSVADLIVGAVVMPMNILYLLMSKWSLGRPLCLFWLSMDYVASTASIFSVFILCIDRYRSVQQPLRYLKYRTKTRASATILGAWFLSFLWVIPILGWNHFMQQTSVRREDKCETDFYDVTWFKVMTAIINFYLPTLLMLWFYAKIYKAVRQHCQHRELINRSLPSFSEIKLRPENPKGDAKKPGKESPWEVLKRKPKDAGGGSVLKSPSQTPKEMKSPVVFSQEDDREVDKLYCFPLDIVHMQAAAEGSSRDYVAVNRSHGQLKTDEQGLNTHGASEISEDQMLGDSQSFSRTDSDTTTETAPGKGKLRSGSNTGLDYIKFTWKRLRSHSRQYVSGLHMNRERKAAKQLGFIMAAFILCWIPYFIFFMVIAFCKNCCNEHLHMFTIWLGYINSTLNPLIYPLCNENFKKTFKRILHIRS
Sequence of Beta-2 adrenergic receptor (P07550 whole entry): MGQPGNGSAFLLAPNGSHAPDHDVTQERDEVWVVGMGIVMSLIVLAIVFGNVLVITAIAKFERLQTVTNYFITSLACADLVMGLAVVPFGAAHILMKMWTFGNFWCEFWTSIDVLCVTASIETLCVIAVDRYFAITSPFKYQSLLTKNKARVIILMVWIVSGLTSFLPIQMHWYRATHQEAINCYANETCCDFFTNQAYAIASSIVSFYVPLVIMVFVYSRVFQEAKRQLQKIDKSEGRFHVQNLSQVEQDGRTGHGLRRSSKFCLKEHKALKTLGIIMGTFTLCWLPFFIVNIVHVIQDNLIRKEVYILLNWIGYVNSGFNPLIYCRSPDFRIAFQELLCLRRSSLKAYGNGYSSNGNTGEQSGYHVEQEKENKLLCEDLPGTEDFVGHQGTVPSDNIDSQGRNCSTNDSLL

Compound | AC50 [1] [µM] | AC50 [2] [µM] | AC50 [3] [µM] | AC50 [4] [µM] | AC50 [5] [µM] | AC50 [6] [µM] | AC50 [7] [µM] | AC50 [8] [µM]
C[C@]1(COc2ccc(N3CCC(Oc4ccc(OC(F)(F)F)cc4)CC3)cc2)Cn2cc([N+](=O)[O-])nc2O1 | > 10 | > 30 | > 10 |  |  |  |  | 
C[C@]12CC[C@H](O)CC1=CC[C@@H]1[C@@H]2CC[C@]2(C)C(c3cccnc3)=CC[C@@H]12 [ABIRATERONE] | > 30 | > 30 | > 10 | > 10 | > 30 |  |  | 
CC(=O)OCC[N+](C)(C)C [ACETYLCHOLINE] | > 30 | > 30 | > 10 |  | > 30 | 29 |  | 
O=C(Nc1nc(-c2cc(Cl)cs2)c(N2CCN(C3CCCCC3)CC2)s1)c1cnc(N2CCC(C(=O)O)CC2)c(Cl)c1 [AVATROMBOPAG] | > 10 | > 10 | > 10 |  | > 10 |  |  | 
CN(C)C(=O)Oc1cc(OC(=O)N(C)C)cc(C(O)CNC(C)(C)C)c1 (stereo unspecified) [BAMBUTEROL] | 9.7 | > 30 |  |  | > 30 | > 30 |  | 
C[C@H]1C[C@H]2[C@@H]3CCC4=CC(=O)C=C[C@]4(C)[C@@]3(Cl)[C@@H](O)C[C@]2(C)[C@@]1(O)C(=O)CO [BECLOMETHASONE] | > 10 | > 30 |  |  | > 30 |  |  | 
CO[C@@]1(NC(=O)CSCC#N)C(=O)N2C(C(=O)O)=C(CSc3nnnn3C)CS[C@@H]21 [CEFMETAZOLE] |  |  |  | > 30 |  |  |  | 
CO/N=C(\C(=O)N[C@@H]1C(=O)N2C(C(=O)[O-])=C(C[n+]3cccc4c3CCC4)CS[C@H]12)c1csc(N)n1 [CEFPIROME] |  |  | > 30 | > 30 |  |  | > 30 | > 30
NS(=O)(=O)c1cc(C2(O)NC(=O)c3ccccc32)ccc1Cl (stereo unspecified) [CHLORTHALIDONE] | > 10 |  |  | > 10 | > 10 | > 10 |  | 
CC[C@H]1OC(=O)[C@H](C)[C@@H](O[C@H]2C[C@@](C)(OC)[C@@H](O)[C@H](C)O2)[C@H](C)[C@@H](O[C@@H]2O[C@H](C)C[C@H](N(C)C)[C@H]2O)[C@](C)(OC)C[C@@H](C)C(=O)[C@H](C)[C@@H](O)[C@]1(C)O [CLARITHROMYCIN] |  | > 30 |  | > 30 | > 30 | > 30 |  | 
Oc1c(I)cc(Cl)c2cccnc12 [CLIOQUINOL] |  |  | > 30 |  |  |  | > 30 | > 30
C[C@@H]1CCC[C@H](C)N1NC(=O)c1ccc(Cl)c(S(N)(=O)=O)c1 [CLOPAMIDE] | > 30 | > 30 | > 30 | > 30 | > 30 | > 30 | > 30 | > 30
COc1ccc2c(c1)[C@]13CCCC[C@@H]1[C@H](C2)N(C)CC3 [DEXTROMETHORPHAN] | > 10 | > 30 |  | > 10 | > 30 |  |  | 
O=c1oc2ccccc2c(O)c1Cc1c(O)c2ccccc2oc1=O [DICUMAROL] | > 10 |  |  | > 10 | > 10 | > 10 |  | 
CCn1cc(C(=O)O)c(=O)c2cc(F)c(N3CCNCC3)nc21 [ENOXACIN] | > 10 | > 30 |  | > 10 | > 30 |  |  | 
O=C(O)CSCC(=O)NC1CCSC1=O (stereo unspecified) [ERDOSTEINE] | > 30 | > 30 | > 30 | > 30 | > 30 | > 30 | > 30 | > 30
COc1cccc(N(C)C(=S)Oc2ccc3c(c2)CCCC3)n1 [LIRANAFTATE] | > 30 | > 30 | > 30 | > 30 | > 30 | > 30 | > 30 | 7.4
C#C[C@]1(O)CC[C@H]2[C@@H]3CCc4cc(OC)ccc4[C@H]3CC[C@@]21C [MESTRANOL] | > 10 |  |  | > 10 | > 30 | 0.096 |  | 
N=C(N)c1ccc2cc(OC(=O)c3ccc(N=C(N)N)cc3)ccc2c1 [NAFAMOSTAT] |  | > 30 | > 30 | > 30 |  | > 30 | > 30 | > 30
CNC(=O)Oc1ccc2c(c1)[C@]1(C)CCN(C)[C@@H]1N2C [PHYSOSTIGMINE] | > 30 | > 30 |  | > 30 | > 30 | > 30 |  | 
O=C(O)c1cc(O)c2c3nc4ccccc4oc-3cc(=O)c2n1 [PIRENOXINE] | > 30 | > 30 | 11 | > 30 | > 30 | > 30 | > 30 | > 30
NS(=O)(=O)c1cc(C(=O)O)cc(N2CCCC2)c1Oc1ccccc1 [PIRETANIDE] | > 30 | > 30 | > 30 | > 30 |  | > 30 | > 30 | > 30
CNCCCC1c2ccccc2C=Cc2ccccc21 [PROTRIPTYLINE] |  |  |  | > 10 | > 30 | > 10 |  | 
COCCCOc1ccnc(C[S+]([O-])c2nc3ccccc3[nH]2)c1C (stereo unspecified) [RABEPRAZOLE] | > 10 | > 30 |  | > 10 | > 30 |  |  | 
CC(C)=CCOc1ccc(/C=C/C(=O)c2ccc(OCC=C(C)C)cc2OCC(=O)O)cc1 [SOFALCONE] | 22 | > 30 | > 30 | > 30 | > 30 | > 30 | > 30 | > 30
O=C(CCCN1CCC2(CC1)C(=O)NCN2c1ccccc1)c1ccc(F)cc1 [SPIPERONE] |  | > 30 | 1.4 |  |  | > 30 |  | 
CCSc1ccc2c(c1)N(CCCN1CCN(C)CC1)c1ccccc1S2 [THIETHYLPERAZINE] |  |  | 0.17 | > 30 |  | > 30 | > 30 | 1.6
OCCN1CCN(CC/C=C2/c3ccccc3Sc3ccc(Cl)cc32)CC1 [ZUCLOPENTHIXOL] | > 10 |  | 0.028 | > 10 | > 30 | > 10 | > 10 | 0.51
